Data taken from the NIST ThermoML archive (doi:10.1021/je200811n).

Settings: Hot wire method

C=C(F)C(F)(F)F [2,3,3,3-tetrafluoro-1-propene]
Settings	thermal conductivity [W/m/K]
272.85 K, 247 kPa, Gas	0.01156
272.89 K, 200 kPa, Gas	0.01156
272.97 K, 145 kPa, Gas	0.0116
273.04 K, 106 kPa, Gas	0.01162
273.14 K, 261 kPa, Gas	0.01159
273.17 K, 273 kPa, Gas	0.01162
273.19 K, 247 kPa, Gas	0.01159
273.26 K, 200 kPa, Gas	0.0116
273.35 K, 144 kPa, Gas	0.01162
273.44 K, 105 kPa, Gas	0.01163
273.46 K, 258 kPa, Gas	0.01159
273.55 K, 274 kPa, Gas	0.01163
273.58 K, 248 kPa, Gas	0.01163
273.64 K, 200 kPa, Gas	0.0116
273.76 K, 142 kPa, Gas	0.01165
273.82 K, 255 kPa, Gas	0.01165
273.87 K, 104 kPa, Gas	0.01165
274.2 K, 253 kPa, Gas	0.01169
281.36 K, 838 kPa, Liquid	0.06988
281.38 K, 860 kPa, Liquid	0.06977
281.41 K, 5779 kPa, Liquid	0.07285
281.44 K, 10941 kPa, Liquid	0.07602
281.46 K, 841 kPa, Liquid	0.06981
281.48 K, 862 kPa, Liquid	0.06968
281.51 K, 5779 kPa, Liquid	0.07276
281.54 K, 10939 kPa, Liquid	0.07609
281.66 K, 86 kPa, Gas	0.01256
281.66 K, 204 kPa, Gas	0.01278
281.79 K, 859 kPa, Liquid	0.06833
281.83 K, 10935 kPa, Liquid	0.07514
281.88 K, 202 kPa, Gas	0.01259
281.89 K, 87 kPa, Gas	0.01239
281.89 K, 843 kPa, Liquid	0.06853
281.93 K, 861 kPa, Liquid	0.06844
281.93 K, 5767 kPa, Liquid	0.07189
281.94 K, 10934 kPa, Liquid	0.07471
281.98 K, 15950 kPa, Liquid	0.07767
282.01 K, 15964 kPa, Liquid	0.07708
282.11 K, 200 kPa, Gas	0.0125
282.13 K, 88 kPa, Gas	0.01231
282.23 K, 841 kPa, Liquid	0.06878
282.25 K, 20590 kPa, Liquid	0.0797
282.26 K, 866 kPa, Liquid	0.06872
282.26 K, 5764 kPa, Liquid	0.07204
282.26 K, 10935 kPa, Liquid	0.07477
282.27 K, 15954 kPa, Liquid	0.07706
282.31 K, 15965 kPa, Liquid	0.0773
282.35 K, 198 kPa, Gas	0.01243
282.38 K, 90 kPa, Gas	0.01224
282.4 K, 841 kPa, Liquid	0.06858
282.4 K, 5763 kPa, Liquid	0.07193
282.4 K, 10935 kPa, Liquid	0.07479
282.41 K, 864 kPa, Liquid	0.0687
282.41 K, 15954 kPa, Liquid	0.07738
282.44 K, 15967 kPa, Liquid	0.07756
282.56 K, 395 kPa, Gas	0.01244
282.61 K, 196 kPa, Gas	0.01241
282.61 K, 308 kPa, Gas	0.01242
282.64 K, 91 kPa, Gas	0.01218
282.66 K, 20587 kPa, Liquid	0.07986
282.71 K, 204 kPa, Gas	0.0124
282.74 K, 5763 kPa, Liquid	0.07185
282.74 K, 10939 kPa, Liquid	0.07487
282.74 K, 15951 kPa, Liquid	0.07763
282.75 K, 834 kPa, Liquid	0.06855
282.77 K, 860 kPa, Liquid	0.06866
282.77 K, 15964 kPa, Liquid	0.07774
282.81 K, 20585 kPa, Liquid	0.07986
282.87 K, 396 kPa, Gas	0.01251
282.89 K, 10938 kPa, Liquid	0.07473
282.9 K, 15949 kPa, Liquid	0.07751
282.92 K, 87 kPa, Gas	0.01242
282.92 K, 5765 kPa, Liquid	0.07169
282.93 K, 832 kPa, Liquid	0.06832
282.93 K, 15964 kPa, Liquid	0.07755
282.94 K, 309 kPa, Gas	0.01248
282.96 K, 859 kPa, Liquid	0.06843
283.07 K, 203 kPa, Gas	0.01237
283.22 K, 396 kPa, Gas	0.01252
283.24 K, 15950 kPa, Liquid	0.07752
283.25 K, 10936 kPa, Liquid	0.07481
283.26 K, 15963 kPa, Liquid	0.07747
283.26 K, 20587 kPa, Liquid	0.07981
283.28 K, 5763 kPa, Liquid	0.07184
283.3 K, 309 kPa, Gas	0.01244
283.3 K, 832 kPa, Liquid	0.06845
283.33 K, 86 kPa, Gas	0.01249
283.33 K, 857 kPa, Liquid	0.0685
283.43 K, 15951 kPa, Liquid	0.07738
283.45 K, 10934 kPa, Liquid	0.07455
283.45 K, 20590 kPa, Liquid	0.07959
283.46 K, 201 kPa, Gas	0.01238
283.46 K, 15962 kPa, Liquid	0.07733
283.49 K, 5765 kPa, Liquid	0.07154
283.53 K, 830 kPa, Liquid	0.06815
283.56 K, 855 kPa, Liquid	0.06813
283.59 K, 396 kPa, Gas	0.01244
283.69 K, 309 kPa, Gas	0.01251

Liquid
Settings	thermal conductivity [W/m/K]
273.15 K	0.07159
283.15 K	0.06833
